In patent publication US9302999B2, “Substituted triazoles as herbicides” (E. I. DU PONT DE NEMOURS AND COMPANY, priority 2012, dated 2016):

How the values were obtained:
Type in all cases: in vivo
[1] = system: cocklebur (common cocklebur, Xanthium strumarium); assay: Test C pre-/postemergence: cocklebur
In short: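 Visual injury scored 0–100 (100 = complete control) against untreated controls after 13–15 greenhouse days. Surfactant-containing solvent formulations applied either to soil after sowing (loam/sand) or over 1- to 4-leaf plants, 2–18 cm tall.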

[2] = system: pigweed (Amaranthus retroflexus); assay: Test D pre-/postemergence: pigweed
In short: (§1)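 Scores run from 0 (no effect) to 100 (complete control), assigned by visual comparison with controls after 14 to 21 days in a controlled environment. Both preemergence application to silt loam and postemergence application to 1- to 4-leaf plants were tested.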

[3] = system: field poppy (Papaver rhoeas); assay: Test D pre-/postemergence: field poppy
In short: as §1

[4] = system: deadnettle (henbit deadnettle, Lamium amplexicaule); assay: Test C postemergence: deadnettle
In short: (§2)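 Plants at the 1- to 4-leaf stage (2 to 18 cm tall), grown in pots of peat moss/vermiculite planting medium, received postemergence applications of the formulated test chemicals. After 13 to 15 days in a greenhouse, injury was scored visually versus controls from 0 (no effect) to 100 (complete control).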

[5] = system: lambsquarters (Chenopodium album); assay: Test D pre-/postemergence: lambsquarters
In short: as §1

[6] = system: kochia (Kochia scoparia); assay: Test D pre-/postemergence: kochia
In short: as §1

[7] = system: mustard, wild (wild mustard, Sinapis arvensis); assay: Test D pre-/postemergence: mustard, wild
In short: as §1

[8] = system: galium (catchweed bedstraw, Galium aparine); assay: Test D pre-/postemergence: galium
In short: as §1

[9] = system: canarygrass (Phalaris minor); assay: Test C postemergence: canarygrass
In short: as §2

[10] = system: speedwell (bird's-eye speedwell, Veronica persica); assay: Test D pre-/postemergence: speedwell
In short: as §1

[11] = Postemergence, 31 g ai/ha, scale 0 to 100 (0 no effect, 100 complete control)
[12] = Postemergence, 62 g ai/ha, scale 0 to 100 (0 no effect, 100 complete control)
[13] = Postemergence, 125 g ai/ha, scale 0 to 100, 0 no effect, 100 complete control
[14] = Postemergence, 250 g ai/ha, scale 0 to 100 (0 no effect, 100 complete control)
[15] = Postemergence, 16 g ai/ha, scale 0 to 100
[16] = Preemergence, 16 g ai/ha, scale 0 to 100 (0 no effect, 100 complete control)
[17] = Preemergence, 31 g ai/ha, scale 0 to 100 (0 no effect, 100 complete control)
[18] = Preemergence, 62 g ai/ha, scale 0 to 100
[19] = Preemergence, 125 g ai/ha, scale 0 to 100
[20] = Preemergence, 250 g ai/ha, scale 0 to 100
[21] = 31 g ai/ha, scale 0 to 100 (0 no effect, 100 complete control)
[22] = 62 g ai/ha, scale 0 to 100 (0 no effect, 100 complete control)
[23] = 125 g ai/ha, scale 0 to 100, 0 no effect, 100 complete control

## CCOc1nn(-c2ccc(F)cc2)nc1Cc1ccnc(C(F)F)c1 [Compound 195]
[1]; Postemergence, 250 g ai/ha, scale 0 to 100
  Plant response rating, Cocklebur: 50
[1]; Preemergence, 125 g ai/ha, scale 0 to 100, 0 no effect, 100 complete control
  Plant response rating, Cocklebur: 0
[2]; [11]
  Plant response rating: Pigweed: 65
[2]; [12]
  Plant response rating: Pigweed: 75
[2]; [13]
  Plant response rating: Pigweed: 80
[2]; [14]
  Plant response rating: Pigweed: 95
[2]; [15]
  Plant response rating, Pigweed: 60
[2]; [16]
  Plant response rating, Pigweed: 60
[2]; [17]
  Plant response rating, Pigweed: 60
[2]; [18]
  Plant response rating, Pigweed: 60
[2]; [19]
  Plant response rating, Pigweed: 100
[2]; [20]
  Plant response rating, Pigweed: 95
[3]; [11]
  Plant response rating: Field Poppy: 75
[3]; [12]
  Plant response rating: Field Poppy: 95
[3]; [13]
  Plant response rating: Field Poppy: 100
[3]; [14]
  Plant response rating: Field Poppy: 100
[3]; [15]
  Plant response rating, Field Poppy: 35
[3]; [16]
  Plant response rating, Field Poppy: 30
[3]; [17]
  Plant response rating, Field Poppy: 40
[3]; [18]
  Plant response rating, Field Poppy: 60
[3]; [19]
  Plant response rating, Field Poppy: 100
[3]; [20]
  Plant response rating, Field Poppy: 100
[4]; [21]
  Plant response rating, Deadnettle: 100
[4]; [22]
  Plant response rating, Deadnettle: 100
[4]; [23]
  Plant response rating, Deadnettle: 100
[4]; 250 g ai/ha, scale 0 to 100
  Plant response rating, Deadnettle: 100
[5]; [11]
  Plant response rating: Lambsquarters: 75
[5]; [12]
  Plant response rating: Lambsquarters: 80
[5]; [13]
  Plant response rating: Lambsquarters: 95
[5]; [14]
  Plant response rating: Lambsquarters: 100
[5]; [15]
  Plant response rating, Lambsquarters: 60
[5]; [16]
  Plant response rating, Lambsquarters: 0
[5]; [17]
  Plant response rating, Lambsquarters: 0
[5]; [18]
  Plant response rating, Lambsquarters: 0
[5]; [19]
  Plant response rating, Lambsquarters: 30
[5]; [20]
  Plant response rating, Lambsquarters: 75
[6]; [11]
  Plant response rating: Kochia: 85
[6]; [12]
  Plant response rating: Kochia: 95
[6]; [13]
  Plant response rating: Kochia: 100
[6]; [14]
  Plant response rating: Kochia: 100
[6]; [15]
  Plant response rating, Kochia: 70
[6]; [16]
  Plant response rating, Kochia: 40
[6]; [17]
  Plant response rating, Kochia: 50
[6]; [18]
  Plant response rating, Kochia: 60
[6]; [19]
  Plant response rating, Kochia: 80
[6]; [20]
  Plant response rating, Kochia: 85
[7]; [11]
  Plant response rating: Mustard, Wild: 80
[7]; [12]
  Plant response rating: Mustard, Wild: 80
[7]; [13]
  Plant response rating: Mustard, Wild: 95
[7]; [14]
  Plant response rating: Mustard, Wild: 100
[7]; [15]
  Plant response rating, Mustard, Wild: 60
[7]; [16]
  Plant response rating, Mustard, Wild: 0
[7]; [17]
  Plant response rating, Mustard, Wild: 10
[7]; [18]
  Plant response rating, Mustard, Wild: 40
[7]; [19]
  Plant response rating, Mustard, Wild: 100
[7]; [20]
  Plant response rating, Mustard, Wild: 100
[8]; [11]
  Plant response rating: Galium: 30
[8]; [12]
  Plant response rating: Galium: 50
[8]; [13]
  Plant response rating: Galium: 75
[8]; [14]
  Plant response rating: Galium: 80
[8]; [15]
  Plant response rating, Galium: 20
[8]; [16]
  Plant response rating, Galium: 0
[8]; [17]
  Plant response rating, Galium: 0
[8]; [18]
  Plant response rating, Galium: 10
[8]; [19]
  Plant response rating, Galium: 30
[8]; [20]
  Plant response rating, Galium: 80
[9]; [21]
  Plant response rating, Canarygrass: 40
[9]; [22]
  Plant response rating, Canarygrass: 60
[9]; [23]
  Plant response rating, Canarygrass: 85
[9]; 250 g ai/ha, scale 0 to 100
  Plant response rating, Canarygrass: 100
[10]; [11]
  Plant response rating: Speedwell: 100
[10]; [12]
  Plant response rating: Speedwell: 100
[10]; [13]
  Plant response rating: Speedwell: 100
[10]; [14]
  Plant response rating: Speedwell: 100
[10]; [15]
  Plant response rating, Speedwell: 100
[10]; [16]
  Plant response rating, Speedwell: 30
[10]; [17]
  Plant response rating, Speedwell: 100
[10]; [18]
  Plant response rating, Speedwell: 100
[10]; [19]
  Plant response rating, Speedwell: 100
[10]; [20]
  Plant response rating, Speedwell: 100
